Test results reported in PubChem BioAssay AID743034 (The Scripps Research Institute Molecular Screening Center, 2013).
Activity calls are given as the source filed them.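 The calls were made as follows: active = half-life above 60 minutes with both human and mouse liver microsomes; inactive = half-life below 60 minutes in both species.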

How the values were obtained:
[1] = tested on: Pooled mouse microsomes; assay: metabolic stability in hepatic microsomes – biochemical, LC-MS/MS, human and mouse microsomes, powder samples, ADME assay for V1a-R antagonist project, late-stage follow-up (AID 743034); settings: pooled human/mouse liver microsomes, at 1 µM, stronger effect = higher value
[2] = tested on: Pooled human microsomes; assay: as above; settings: pooled human/mouse liver microsomes, at 1 µM, stronger effect = higher value

- half-life [1]: 7.8 min (inactive)
- half-life [2]: 23.8 min (inactive)
Structure (SMILES): O=C(C1CCN(c2ccc(Cl)cn2)CC1)N(CC1CC1)c1ccc(Cl)cc1
